# Measured values: ChEMBL document CHEMBL1201862, “PubChem BioAssay data set” (2004)
# Activity calls are given as the source filed them.
# Assays:
# Hexokinase = biological target: T1, Hexokinase (Trypanosoma brucei, UniProt Q38C41); assay: Confirmation assay for inhibitors of Trypanosoma brucei hexokinase 1-Analogue-first series. [Related pubchem assays (depositor defined):AID1430, AID1632, AID2516, AID2560, AID2579, AID2600, AID449725, AID492951]; type: functional
# T1 sequence (Q38C41 whole entry): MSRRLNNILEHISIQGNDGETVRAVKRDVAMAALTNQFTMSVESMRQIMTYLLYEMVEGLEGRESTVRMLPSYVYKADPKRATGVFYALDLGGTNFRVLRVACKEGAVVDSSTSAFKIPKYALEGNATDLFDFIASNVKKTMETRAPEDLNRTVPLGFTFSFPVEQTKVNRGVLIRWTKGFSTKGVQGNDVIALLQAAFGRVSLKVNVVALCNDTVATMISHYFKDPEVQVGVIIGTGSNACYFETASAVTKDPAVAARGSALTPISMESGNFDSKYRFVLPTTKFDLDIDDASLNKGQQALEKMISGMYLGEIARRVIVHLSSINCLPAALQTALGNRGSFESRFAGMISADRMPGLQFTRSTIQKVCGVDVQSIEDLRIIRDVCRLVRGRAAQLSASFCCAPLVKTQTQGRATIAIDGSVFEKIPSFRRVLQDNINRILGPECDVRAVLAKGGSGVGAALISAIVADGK
# [1] = NIH-3T3 fibroblast cytotoxicity, dose response, cytotoxicity control, cell-based, fluorescence, Alamar Blue, secondary assay (AID 2327); type: functional;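 note: NIH-3T3 mouse fibroblasts cultured with fluconazole at 8 µg/mL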
# [2] = fluconazole-exposed Candida albicans growth modulators – fluorescence, retest, confirmation (AID 2467); type: functional, cell-based
# [3] = biological target: T2, Serine/threonine-protein phosphatase (Candida dubliniensis (strain CD36 / CBS 7987 / NCPF 3949 / NRRLY-17841) (Yeast), UniProt B9W6M3); assay: blockers of CaCl2-induced CDRE-lacZ signaling – S. cerevisiae, luminescence, secondary, dose response (AID 2388); type: functional, cell-based;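 note: yeast reporter cells carrying a calcineurin-responsive lacZ construct stimulated with calcium chloride; luminescent beta-galactosidase reporter signal in whole cells rather than isolated phosphatase activity; potency for inhibition where a drop in reporter signal means calcineurin blockade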
# T2 sequence (B9W6M3 whole entry): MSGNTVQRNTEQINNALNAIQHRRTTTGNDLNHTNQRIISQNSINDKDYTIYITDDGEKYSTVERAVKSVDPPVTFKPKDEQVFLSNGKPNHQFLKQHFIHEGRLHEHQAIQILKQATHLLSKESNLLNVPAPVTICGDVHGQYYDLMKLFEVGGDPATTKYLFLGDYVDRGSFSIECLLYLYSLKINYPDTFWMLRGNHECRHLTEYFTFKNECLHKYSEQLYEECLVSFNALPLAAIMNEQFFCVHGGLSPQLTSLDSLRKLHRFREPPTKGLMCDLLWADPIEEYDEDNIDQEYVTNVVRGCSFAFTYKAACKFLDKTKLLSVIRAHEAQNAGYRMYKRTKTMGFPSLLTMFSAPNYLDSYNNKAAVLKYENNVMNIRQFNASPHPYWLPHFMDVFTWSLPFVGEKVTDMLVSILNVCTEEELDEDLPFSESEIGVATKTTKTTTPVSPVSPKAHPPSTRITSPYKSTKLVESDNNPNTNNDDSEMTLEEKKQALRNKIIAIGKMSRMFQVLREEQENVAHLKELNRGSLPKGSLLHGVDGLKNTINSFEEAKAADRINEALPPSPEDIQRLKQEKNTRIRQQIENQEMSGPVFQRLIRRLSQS
# [4] = biological target: ATP-dependent molecular chaperone HSP82 (Candida albicans (strain WO-1) (Yeast), UniProt C4YTQ8); assay: steroid-induced GRE reporter decrease in yeast – S. cerevisiae, luminescence, Hsp90 inhibitor project, dose response (AID 2400); type: functional, cell-based;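 note: beta-galactosidase luminescence from glucocorticoid response element reporter as proxy for Hsp90 function; inhibitor potency where signal loss means Hsp90 inhibition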
# Sequence of ATP-dependent molecular chaperone HSP82 (C4YTQ8 whole entry): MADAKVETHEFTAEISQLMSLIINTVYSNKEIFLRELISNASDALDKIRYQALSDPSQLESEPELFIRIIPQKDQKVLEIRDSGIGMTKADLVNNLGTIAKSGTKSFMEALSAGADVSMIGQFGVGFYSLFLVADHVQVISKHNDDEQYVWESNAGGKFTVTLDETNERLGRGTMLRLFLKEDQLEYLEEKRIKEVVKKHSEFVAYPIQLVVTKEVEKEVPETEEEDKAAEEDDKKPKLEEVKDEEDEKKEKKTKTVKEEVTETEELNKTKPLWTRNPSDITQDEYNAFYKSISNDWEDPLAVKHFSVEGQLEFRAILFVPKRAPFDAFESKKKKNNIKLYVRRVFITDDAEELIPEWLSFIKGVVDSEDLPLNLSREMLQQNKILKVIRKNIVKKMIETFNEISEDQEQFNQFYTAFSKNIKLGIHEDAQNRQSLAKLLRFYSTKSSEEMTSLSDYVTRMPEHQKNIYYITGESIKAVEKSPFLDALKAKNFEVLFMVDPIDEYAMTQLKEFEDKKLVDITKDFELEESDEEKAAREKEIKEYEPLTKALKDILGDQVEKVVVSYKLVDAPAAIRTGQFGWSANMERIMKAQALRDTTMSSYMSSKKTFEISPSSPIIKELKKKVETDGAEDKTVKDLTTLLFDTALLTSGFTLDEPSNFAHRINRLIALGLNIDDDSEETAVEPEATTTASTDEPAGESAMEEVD
# Nonstructural protein 1 = Nonstructural protein 1 (Influenza A virus, UniProt Q194T2); type: functional, Influenza A virus (A/California/07/2009(H1N1))
# Sequence of Nonstructural protein 1 (Q194T2 whole entry): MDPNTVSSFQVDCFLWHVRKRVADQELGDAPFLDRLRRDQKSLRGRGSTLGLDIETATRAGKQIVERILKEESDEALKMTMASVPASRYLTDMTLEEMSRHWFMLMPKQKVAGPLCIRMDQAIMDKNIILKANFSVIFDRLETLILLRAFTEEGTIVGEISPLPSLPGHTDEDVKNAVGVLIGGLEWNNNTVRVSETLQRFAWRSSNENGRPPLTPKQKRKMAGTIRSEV
# [5] = biological target: T3, Alkaline phosphatase, tissue-nonspecific isozyme (Homo sapiens, UniProt P05186); assay: potency against alkaline phosphatase TNAP – biochemical, luminescent, dose response, SAR follow-up (AID 1056)
# T3 sequence (P05186 whole entry): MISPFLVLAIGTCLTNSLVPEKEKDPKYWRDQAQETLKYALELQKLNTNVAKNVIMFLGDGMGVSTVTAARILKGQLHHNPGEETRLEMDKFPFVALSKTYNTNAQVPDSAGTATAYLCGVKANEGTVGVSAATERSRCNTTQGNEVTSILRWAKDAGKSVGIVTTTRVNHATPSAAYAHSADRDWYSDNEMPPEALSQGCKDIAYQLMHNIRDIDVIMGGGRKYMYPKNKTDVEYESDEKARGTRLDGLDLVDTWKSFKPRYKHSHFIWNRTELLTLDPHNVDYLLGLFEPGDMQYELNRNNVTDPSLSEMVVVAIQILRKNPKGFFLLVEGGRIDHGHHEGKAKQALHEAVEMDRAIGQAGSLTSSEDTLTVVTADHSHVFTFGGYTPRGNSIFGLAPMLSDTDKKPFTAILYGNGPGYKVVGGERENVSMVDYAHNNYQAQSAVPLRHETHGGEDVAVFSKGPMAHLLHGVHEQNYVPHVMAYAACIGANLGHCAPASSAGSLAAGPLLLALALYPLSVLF
# [6] = biological target: Glyceraldehyde-3-phosphate dehydrogenase (Homo sapiens, UniProt P04406)
# Sequence of Glyceraldehyde-3-phosphate dehydrogenase (P04406 whole entry): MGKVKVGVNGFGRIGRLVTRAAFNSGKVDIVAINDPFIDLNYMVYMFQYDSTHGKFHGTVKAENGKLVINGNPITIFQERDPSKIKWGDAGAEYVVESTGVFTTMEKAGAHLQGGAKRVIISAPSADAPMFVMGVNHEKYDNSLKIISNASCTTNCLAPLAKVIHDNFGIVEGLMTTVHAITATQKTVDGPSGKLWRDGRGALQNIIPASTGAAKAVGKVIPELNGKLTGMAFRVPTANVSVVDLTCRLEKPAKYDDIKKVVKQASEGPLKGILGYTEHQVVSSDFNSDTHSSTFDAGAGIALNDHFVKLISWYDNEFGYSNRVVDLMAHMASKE
# Protein skinhead-1 = biological target: T4, Protein skinhead-1 (Caenorhabditis elegans, UniProt P34707); type: functional
# T4 sequence (P34707 whole entry): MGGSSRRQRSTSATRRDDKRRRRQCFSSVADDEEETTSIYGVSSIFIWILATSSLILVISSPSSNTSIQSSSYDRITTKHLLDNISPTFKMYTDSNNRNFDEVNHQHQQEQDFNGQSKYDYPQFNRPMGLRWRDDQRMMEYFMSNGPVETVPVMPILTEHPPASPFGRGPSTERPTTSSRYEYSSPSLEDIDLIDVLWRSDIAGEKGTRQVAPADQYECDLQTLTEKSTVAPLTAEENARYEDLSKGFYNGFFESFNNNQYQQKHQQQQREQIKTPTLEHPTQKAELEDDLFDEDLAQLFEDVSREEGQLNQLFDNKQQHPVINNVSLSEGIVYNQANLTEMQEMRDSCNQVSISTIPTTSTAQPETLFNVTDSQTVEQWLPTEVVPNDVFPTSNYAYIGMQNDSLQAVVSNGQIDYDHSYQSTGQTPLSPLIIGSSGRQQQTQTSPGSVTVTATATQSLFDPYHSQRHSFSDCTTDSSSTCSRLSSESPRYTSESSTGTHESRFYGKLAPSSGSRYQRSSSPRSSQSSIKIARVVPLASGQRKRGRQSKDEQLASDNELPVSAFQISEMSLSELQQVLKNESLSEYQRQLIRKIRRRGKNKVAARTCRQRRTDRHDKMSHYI
# [7] = biological target: G-protein coupled receptor 55 (Homo sapiens, UniProt Q9Y2T6); assay: inhibition of LPI-stimulated GPR55 beta-arrestin translocation – imaging, U2OS, beta-arrestin-GFP, LPI agonist, primary screen (AID 2013); type: functional;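 note: antagonist potency measured as reduced agonist-driven arrestin aggregation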
# Sequence of G-protein coupled receptor 55 (Q9Y2T6 whole entry): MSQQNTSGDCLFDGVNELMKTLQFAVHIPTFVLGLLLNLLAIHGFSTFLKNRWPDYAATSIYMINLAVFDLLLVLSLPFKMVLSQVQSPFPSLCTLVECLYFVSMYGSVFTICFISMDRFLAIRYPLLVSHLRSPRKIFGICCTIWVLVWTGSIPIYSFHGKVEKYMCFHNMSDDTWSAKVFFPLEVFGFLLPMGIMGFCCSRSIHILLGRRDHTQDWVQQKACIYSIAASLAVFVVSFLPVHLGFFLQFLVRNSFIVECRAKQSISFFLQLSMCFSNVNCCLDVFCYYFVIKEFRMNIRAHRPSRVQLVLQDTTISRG
# Troponin, cardiac muscle = Troponin, cardiac muscle (Homo sapiens, UniProt P19429+P45379+P63316); assay: Fluorescence-based biochemical high throughput dose response assay for activators of the calcium sensitivity of cardiac Regulated Thin Filaments (RTF). [Related pubchem assays (depositor defined):AID493008, AID493018, AID504382, AID504383]; type: protein-complex assay
# Coagulation factor XII = biological target: T5, Coagulation factor XII (Homo sapiens, UniProt P00748); type: functional;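 note: activated factor XIIa alpha cleaving a fluorogenic AMC peptide substrate; inhibitor potency from loss of enzyme activity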
# T5 sequence (P00748 whole entry): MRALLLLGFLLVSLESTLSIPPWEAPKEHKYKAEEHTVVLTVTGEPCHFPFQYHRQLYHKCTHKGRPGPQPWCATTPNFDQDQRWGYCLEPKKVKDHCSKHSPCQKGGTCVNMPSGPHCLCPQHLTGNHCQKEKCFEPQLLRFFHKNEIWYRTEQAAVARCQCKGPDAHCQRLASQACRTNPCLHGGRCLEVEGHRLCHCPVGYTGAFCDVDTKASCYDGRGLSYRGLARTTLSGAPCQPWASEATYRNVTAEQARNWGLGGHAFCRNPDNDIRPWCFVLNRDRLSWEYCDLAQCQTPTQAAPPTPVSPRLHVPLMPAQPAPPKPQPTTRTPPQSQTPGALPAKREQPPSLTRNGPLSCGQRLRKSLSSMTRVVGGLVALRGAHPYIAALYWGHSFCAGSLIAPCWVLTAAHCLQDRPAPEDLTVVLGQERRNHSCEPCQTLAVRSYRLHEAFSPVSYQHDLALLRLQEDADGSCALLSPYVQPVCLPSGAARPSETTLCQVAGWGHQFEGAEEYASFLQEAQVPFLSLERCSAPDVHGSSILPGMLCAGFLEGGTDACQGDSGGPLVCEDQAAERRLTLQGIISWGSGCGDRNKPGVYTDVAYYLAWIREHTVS
# HEK293 = assay: EBV LMP1 TES2 canonical NF-kB signalling blockers – cell-based, HEK293, luciferase, cherry-pick, dose response (AID 588343); type: functional; details: Homo sapiens
# [8] = biological target: FAD-linked sulfhydryl oxidase ALR (Homo sapiens, UniProt P55789); assay: ALR-catalysed DTT oxidation blockers – biochemical, H2O2 detection, luminescence, cherry-pick, dose response (AID 493248)
# Sequence of FAD-linked sulfhydryl oxidase ALR (P55789 whole entry): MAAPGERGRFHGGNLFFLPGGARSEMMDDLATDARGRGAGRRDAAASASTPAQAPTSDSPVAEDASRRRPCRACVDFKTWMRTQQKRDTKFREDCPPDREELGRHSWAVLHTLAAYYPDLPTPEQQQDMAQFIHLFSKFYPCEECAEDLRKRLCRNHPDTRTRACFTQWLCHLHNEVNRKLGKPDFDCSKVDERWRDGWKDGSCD
# [9] = biological target: Protein-tyrosine kinase 2-beta (Homo sapiens, UniProt Q14289);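 note: potency of inhibitors of PYK2 kinase phosphorylation of poly-GT substrate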
# Sequence of Protein-tyrosine kinase 2-beta (Q14289 whole entry): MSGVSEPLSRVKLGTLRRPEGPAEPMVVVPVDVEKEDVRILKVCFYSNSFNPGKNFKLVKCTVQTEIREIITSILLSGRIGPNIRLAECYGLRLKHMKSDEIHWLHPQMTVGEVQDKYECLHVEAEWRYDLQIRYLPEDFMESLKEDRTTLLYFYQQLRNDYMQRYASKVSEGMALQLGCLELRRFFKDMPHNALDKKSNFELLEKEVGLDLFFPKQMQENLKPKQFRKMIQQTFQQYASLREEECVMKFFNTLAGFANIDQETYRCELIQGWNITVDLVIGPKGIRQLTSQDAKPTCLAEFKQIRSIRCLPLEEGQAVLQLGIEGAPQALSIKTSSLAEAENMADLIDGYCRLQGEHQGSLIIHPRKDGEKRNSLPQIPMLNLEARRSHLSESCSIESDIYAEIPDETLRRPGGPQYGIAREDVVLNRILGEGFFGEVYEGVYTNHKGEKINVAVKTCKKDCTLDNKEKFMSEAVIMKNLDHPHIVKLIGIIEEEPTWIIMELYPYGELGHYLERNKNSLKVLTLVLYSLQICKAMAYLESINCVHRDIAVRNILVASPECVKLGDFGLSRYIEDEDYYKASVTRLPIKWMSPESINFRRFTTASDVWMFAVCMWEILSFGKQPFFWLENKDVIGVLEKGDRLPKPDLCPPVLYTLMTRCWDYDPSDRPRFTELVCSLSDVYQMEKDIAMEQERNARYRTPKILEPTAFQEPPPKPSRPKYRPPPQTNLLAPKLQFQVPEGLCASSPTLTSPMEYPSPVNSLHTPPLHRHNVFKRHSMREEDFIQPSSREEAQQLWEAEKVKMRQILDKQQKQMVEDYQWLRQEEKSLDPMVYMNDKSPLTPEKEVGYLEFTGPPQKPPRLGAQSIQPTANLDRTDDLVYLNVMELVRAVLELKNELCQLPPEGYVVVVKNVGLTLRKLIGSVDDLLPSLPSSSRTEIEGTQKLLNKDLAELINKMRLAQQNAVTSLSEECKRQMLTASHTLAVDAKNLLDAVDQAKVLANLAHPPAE
# Cytochrome P450 2C9 = Cytochrome P450 2C9 (Homo sapiens, UniProt P11712)
# Sequence of Cytochrome P450 2C9 (P11712 whole entry): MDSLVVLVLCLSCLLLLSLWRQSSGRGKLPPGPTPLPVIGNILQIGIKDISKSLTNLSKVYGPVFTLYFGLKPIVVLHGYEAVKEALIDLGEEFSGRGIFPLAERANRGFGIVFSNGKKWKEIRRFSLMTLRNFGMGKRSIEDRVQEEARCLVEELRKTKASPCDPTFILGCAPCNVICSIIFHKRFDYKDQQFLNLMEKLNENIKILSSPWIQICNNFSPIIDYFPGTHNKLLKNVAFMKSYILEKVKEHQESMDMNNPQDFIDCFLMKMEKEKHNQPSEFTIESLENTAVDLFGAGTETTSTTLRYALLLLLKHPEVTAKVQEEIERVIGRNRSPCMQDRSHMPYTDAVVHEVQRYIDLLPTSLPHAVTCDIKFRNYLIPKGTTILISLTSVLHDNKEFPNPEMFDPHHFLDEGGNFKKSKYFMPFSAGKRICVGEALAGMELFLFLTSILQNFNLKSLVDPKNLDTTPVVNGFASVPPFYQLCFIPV
# Cytochrome P450 2D6 = Cytochrome P450 2D6 (Homo sapiens, UniProt P10635);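 note: CYP2D6 member of a cytochrome P450 panel assay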
# Sequence of Cytochrome P450 2D6 (P10635 whole entry): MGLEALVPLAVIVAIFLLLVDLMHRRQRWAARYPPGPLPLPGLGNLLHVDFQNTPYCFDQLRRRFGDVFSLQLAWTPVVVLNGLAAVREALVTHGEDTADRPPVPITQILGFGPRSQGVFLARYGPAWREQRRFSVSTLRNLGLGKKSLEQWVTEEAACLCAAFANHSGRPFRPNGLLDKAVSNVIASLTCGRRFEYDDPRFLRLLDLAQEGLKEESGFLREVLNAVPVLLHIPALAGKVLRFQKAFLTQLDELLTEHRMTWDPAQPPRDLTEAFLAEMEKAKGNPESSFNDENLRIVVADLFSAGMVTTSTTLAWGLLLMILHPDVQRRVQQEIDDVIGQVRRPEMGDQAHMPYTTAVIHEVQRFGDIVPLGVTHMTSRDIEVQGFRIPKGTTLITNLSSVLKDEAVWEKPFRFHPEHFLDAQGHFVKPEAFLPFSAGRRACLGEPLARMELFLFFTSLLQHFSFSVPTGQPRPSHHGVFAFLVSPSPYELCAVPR
# CAAX prenyl protease 2 = biological target: T6, CAAX prenyl protease 2 (Saccharomyces cerevisiae S288c, UniProt Q03530); type: biochemical
# T6 sequence (Q03530 whole entry): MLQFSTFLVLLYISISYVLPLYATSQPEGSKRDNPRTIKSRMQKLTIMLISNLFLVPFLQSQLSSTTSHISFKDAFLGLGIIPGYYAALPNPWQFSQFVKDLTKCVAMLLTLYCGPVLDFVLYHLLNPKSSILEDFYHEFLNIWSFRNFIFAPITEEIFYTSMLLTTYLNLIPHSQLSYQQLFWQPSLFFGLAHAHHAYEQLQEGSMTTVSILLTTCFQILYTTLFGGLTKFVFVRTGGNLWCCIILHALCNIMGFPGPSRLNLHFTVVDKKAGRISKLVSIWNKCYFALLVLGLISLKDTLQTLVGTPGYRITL
# BJ [10] = assay: BJ-TERT fibroblast viability loss – cell-based, RAS-independent, luminescence, dose response (AID 1933); type: functional; details: Homo sapiens
# [11] = decrease of insulin promoter-GFP reporter – imaging, high-content screening, mouse beta cells (AID 1628); type: functional; details: MIN6
# BJ [12] = assay: cells; type: functional, cell-based; details: Homo sapiens
# [13] = MIN6 cell viability loss – mouse insulinoma, cytotoxicity control, dose response (AID 2122); type: functional;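 note: confirmatory high-throughput counterscreen run to flag cytotoxic compounds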
# [14] = DRD fibroblast viability loss – cell-based, non-viral oncogenic, luminescence, dose response (AID 1934); type: functional; details: Homo sapiens
# BJ [15] = assay: BJ-TERT-LT-ST fibroblast viability loss – cell-based, RAS-independent, luminescence, dose response (AID 1935); type: functional; details: Homo sapiens;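 note: BJ fibroblasts immortalized with TERT plus LT and ST oncogenes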
# [16] = biological target: Beta-2 adrenergic receptor (Homo sapiens, UniProt P07550); assay: ADRB2 activation measured by internalization – cell-based, FAP fluorogen, flow cytometry, cherry pick 1, dose response (AID 588763); type: functional
# Sequence of Beta-2 adrenergic receptor (P07550 whole entry): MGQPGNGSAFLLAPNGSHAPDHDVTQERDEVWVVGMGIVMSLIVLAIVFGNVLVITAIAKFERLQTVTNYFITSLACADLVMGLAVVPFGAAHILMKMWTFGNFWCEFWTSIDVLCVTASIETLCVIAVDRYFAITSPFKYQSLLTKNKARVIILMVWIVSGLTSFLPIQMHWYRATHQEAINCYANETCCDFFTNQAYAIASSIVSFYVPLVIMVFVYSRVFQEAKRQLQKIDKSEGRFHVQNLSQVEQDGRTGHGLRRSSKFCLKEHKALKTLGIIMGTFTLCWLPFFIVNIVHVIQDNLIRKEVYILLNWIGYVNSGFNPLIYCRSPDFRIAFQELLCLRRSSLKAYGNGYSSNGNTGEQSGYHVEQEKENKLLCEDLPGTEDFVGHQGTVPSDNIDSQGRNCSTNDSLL
# Trypsin = Trypsin (Sus scrofa, UniProt P00761); assay: trypsin protease activity blockade – biochemical, quenched peptide fluorescence, cherry-pick, selectivity assay for Rce1 protease inhibitor project, dose response (AID 488789)
# Sequence of Trypsin (P00761 whole entry): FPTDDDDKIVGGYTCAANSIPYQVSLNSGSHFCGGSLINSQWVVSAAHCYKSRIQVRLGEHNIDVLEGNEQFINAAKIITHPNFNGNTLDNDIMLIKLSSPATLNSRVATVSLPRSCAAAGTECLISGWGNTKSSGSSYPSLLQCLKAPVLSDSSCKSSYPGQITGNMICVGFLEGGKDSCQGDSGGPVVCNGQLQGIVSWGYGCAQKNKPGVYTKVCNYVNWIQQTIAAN
smiles,measurement,setting,value
O=C(Nc1cc(Cl)ccc1C(=O)O)c1ccc(OC(F)(F)F)cc1,IC50,Hexokinase,> 25 µM (inactive)
N#C/C(=C\c1ccc(N2CCOCC2)cc1)c1ccccc1,EC50,[1],> 150 µM (inactive)
same,EC50,[2],0.49 µM (active)
same,EC50,[3],> 180 µM (inactive)
same,EC50,[4],68.9 µM (active)
CC1=NN(c2ccc(C)cc2)C(=O)/C1=C\C=C\c1ccccc1,IC50,Nonstructural protein 1,21.1 µM (active)
COC(=O)c1cc(-c2ccc(Br)cc2)n[nH]1,IC50,[5],> 100 µM (inactive)
same,IC50,[6],> 100 µM (not active)
same,IC50,Protein skinhead-1,> 100 µM (inactive)
Cc1ccccc1N(C(=O)c1cccs1)c1nc2ccccc2s1,IC50,[7],1.52 µM (active)
COc1ccccc1N1CCN(c2ccc([N+](=O)[O-])cc2Cl)CC1,EC50,"Troponin, cardiac muscle",> 71.5 µM (inactive)
Cc1ccsc1/C=N/NC(=O)c1ccc2c(c1)OCCO2,IC50,Coagulation factor XII,> 50 µM (inactive)
same,AC50,HEK293,7.87 µM (active)
O=C1NC(=O)N(Cc2ccc(F)cc2)C(=O)/C1=C/NNc1ccccc1,EC50,"Troponin, cardiac muscle",> 71.5 µM (inactive)
same,AC50,[8],0.438 µM (active)
O=c1oc(-c2ccc(Br)o2)nc2ccccc12,IC50,Coagulation factor XII,> 50 µM (inactive)
same,IC50,[9],2.66 µM (active)
O=c1c2c(Br)cccc2sn1-c1ccccc1,IC50,Hexokinase,1.93 µM (active)
O=C(Cc1nc2ccccc2s1)c1ccc(O)cc1O,EC50,[1],> 160 µM (inactive)
same,EC50,[2],0.691 µM (active)
same,EC50,[3],> 180 µM (inactive)
same,EC50,[4],> 160 µM (inactive)
O=c1c(-c2nnc(SCc3ccc(Cl)c(Cl)c3)o2)cccn1Cc1ccccc1,AC50,Cytochrome P450 2C9,15.8 µM (inconclusive)
same,AC50,Cytochrome P450 2D6,28.2 µM (inconclusive)
same,AC50,CAAX prenyl protease 2,11 µM (active)
NS(=O)(=O)c1ccc(NNC(=O)c2sccc2Cl)cc1,IC50,Coagulation factor XII,> 50 µM (inactive)
CCc1nc(C)cn1S(=O)(=O)c1cc([N+](=O)[O-])ccc1Cl,EC50,BJ [10],8.45 µM (inconclusive)
same,IC50,[11],2.59 µM (active)
same,EC50,BJ [12],4.81 µM (inconclusive)
same,IC50,[13],2.53 µM (active)
same,EC50,[14],7.62 µM (inconclusive)
same,IC50,[7],6.53 µM (active)
same,EC50,BJ [15],3.93 µM (active)
O=C(COc1ccccc1F)N1c2ccccc2CCc2ccccc21,EC50,[16],1.6 µM (active)
Cc1cc(C)n2cc(CSc3nncn3C)nc2n1,AC50,Trypsin,8.35 µM (active)
same,AC50,CAAX prenyl protease 2,13.8 µM (active)
